Assay results as given in PMC12203311, “Design, synthesis, in silico and in vitro evaluation of pyrrole–indole hybrids as dual tubulin and aromatase inhibitors with potent anticancer activities” (RSC Advances, 2025).

Tests used:
SF-268 = test: NCI60 five-dose screen; type: cell-based; details: Homo sapiens, SF-268, CNS cancer; for CC50: read-out: LC50 (the source's name)
LOX IMVI = test: NCI60 five-dose screen; type: cell-based; details: Homo sapiens, melanoma; for CC50: read-out: LC50 (the source's name)
SK-MEL-2 = test: NCI60 five-dose screen; type: cell-based; details: Homo sapiens, SK-MEL-2, melanoma; for CC50: read-out: LC50 (the source's name)
BT-549 = test: NCI60 five-dose screen; type: cell-based; details: Homo sapiens, BT-549, breast cancer; for CC50: read-out: LC50 (the source's name)
U251 = test: NCI60 five-dose screen; type: cell-based; details: Homo sapiens, U-251, U251, CNS cancer; for CC50: read-out: LC50 (the source's name)
CCRF-CEM = test: NCI60 five-dose screen; type: cell-based; details: Homo sapiens, leukemia; for CC50: read-out: LC50 (the source's name)
[1] = test system: T47D breast cancer cell line; test: Cytotoxicity MTT assay, T47D; type: cell-based, human; details: 10 µM and 50 µM
Experimental: T47D (ATCC HTB-133) was purchased from Biomedia (Thailand) Co., LTD. L929 (ATCC CCL-1) was received as a gift from Prof. Tanapat Palaga, Department of Microbiology, Faculty of Science, Chulalongkorn University, Bangkok, Thailand. The cells were cultured in Dulbecco's Modified Eagle's Medium (DMEM; Gibco) supplemented with 10% fetal bovine serum (FBS; HyClone), 100 U mL^−1 penicillin and 100 µg mL^−1 streptomycin (Gibco) at 37 °C with 5% CO2.
The antiproliferative activity was determined by MTT assay. Briefly, the cells were plated into a 96-well microplate at the density of 10 000 cells per well. The cells were allowed to grow overnight before treated with the solutions of compounds in culture medium at the designated concentrations for 48 hours. The medium was then replaced with MTT solution (0.5 mg mL^−1 MTT in culture medium) and incubated for 3 hours. A 100 µL of DMSO was used to dissolve the produced formazan. Absorbance at 570 nm was then measured using a microplate reader (Varioskan™ LUX multimode microplate reader, Thermo Scientific™). Percent viability was calculated relative to the vehicle control (DMSO).

SN12C = test: NCI60 five-dose screen; type: cell-based; details: Homo sapiens, renal cancer; for CC50: read-out: LC50 (the source's name)
786-0 = test: NCI60 five-dose screen; type: cell-based; details: Homo sapiens, 786-0, renal cancer; for CC50: read-out: LC50 (the source's name)
HT29 = test: NCI60 five-dose screen; type: cell-based; details: Homo sapiens, HT-29, HT29, colon cancer; for CC50: read-out: LC50 (the source's name)
SK-MEL-28 = test: NCI60 five-dose screen; type: cell-based; details: Homo sapiens, SK-MEL-28, melanoma; for CC50: read-out: LC50 (the source's name)
UO-31 = test: NCI60 five-dose screen; type: cell-based; details: Homo sapiens, UO-31, renal cancer
COLO 205 = test: NCI60 five-dose screen; type: cell-based, human; details: Homo sapiens; for CC50: COLO 205, COLO 205, colon cancer, read-out: LC50 (the source's name); for GI50: COLO 205, colon cancer
PC-3 = test: NCI60 five-dose screen; type: cell-based; details: Homo sapiens, PC-3, prostate cancer; for CC50: read-out: LC50 (the source's name)
IGROV1 = test: NCI60 five-dose screen; type: cell-based; details: Homo sapiens, IGROV-1; IGROV1, ovarian cancer
A498 = test: NCI60 five-dose screen; type: cell-based; details: Homo sapiens, A498, renal cancer; for CC50: read-out: LC50 (the source's name)
ACHN = test: NCI60 five-dose screen; type: cell-based; details: Homo sapiens, renal cancer; for CC50: read-out: LC50 (the source's name)
HOP-92 = test: NCI60 five-dose screen; type: cell-based; details: Homo sapiens, HOP-92, NSC lung cancer; for CC50: read-out: LC50 (the source's name)
SK-MEL-5 = test: NCI60 five-dose screen; type: cell-based, human; details: Homo sapiens; for CC50: SK-MEL-5, SK-MEL-5, melanoma, read-out: LC50 (the source's name); for GI50: SK-MEL-5, melanoma
UACC-62 = test: NCI60 five-dose screen; type: cell-based; details: Homo sapiens, UACC-62, melanoma; for CC50: read-out: LC50 (the source's name)
MDA-MB-468 = test: NCI60 five-dose screen; type: cell-based; details: Homo sapiens, MDA-MB-468, breast cancer; for CC50: read-out: LC50 (the source's name)
HCT-116 = test: NCI60 five-dose screen; type: cell-based; details: Homo sapiens, HCT-116, colon cancer; for CC50: read-out: LC50 (the source's name)
HOP-62 = test: NCI60 five-dose screen; type: cell-based; details: Homo sapiens, HOP-62, NSC lung cancer; for CC50: read-out: LC50 (the source's name)
OVCAR-3 = test: NCI60 five-dose screen; type: cell-based; details: Homo sapiens, OVCAR-3, ovarian cancer; for CC50: read-out: LC50 (the source's name)
TK-10 = test: NCI60 five-dose screen; type: cell-based; details: Homo sapiens, TK-10, renal cancer; for CC50: read-out: LC50 (the source's name)
RPMI-8226 = test: NCI60 five-dose screen; type: cell-based; details: Homo sapiens, RPMI-8226, leukemia; for CC50: read-out: LC50 (the source's name)
CAKI-1 = test: NCI60 five-dose screen; type: cell-based; details: Homo sapiens, CAKI-1, renal cancer; for CC50: read-out: LC50 (the source's name)
SNB-75 = test: NCI60 five-dose screen; type: cell-based; details: Homo sapiens, SNB-75, CNS cancer; for CC50: read-out: LC50 (the source's name)
OVCAR-5 = test: NCI60 five-dose screen; type: cell-based; details: Homo sapiens, OVCAR-5, ovarian cancer; for CC50: read-out: LC50 (the source's name)

O=C(N/N=C/c1cc[nH]c1)c1[nH]c2ccc(Br)cc2c1-c1ccccc1 [Derivative 3b, (E)-N′-((1H-Pyrrol-3-yl)methylene)-5-bromo-3-phenyl-1H-indole-2-carbohydrazide]
GI50 (SF-268): 2.41 µM
CC50 (SF-268): 59.1 µM
GI50 (LOX IMVI): 0.916 µM
CC50 (LOX IMVI): 38.7 µM
GI50 (SK-MEL-2): 2.48 µM
CC50 (SK-MEL-2): 38.4 µM
GI50 (BT-549): 4.53 µM
CC50 (BT-549): 52.3 µM
GI50 (U251): 2.08 µM
CC50 (U251): 40.8 µM
GI50 (CCRF-CEM): 0.821 µM
CC50 (CCRF-CEM): > 100 µM
activity against T47D in two-dose screen [1]: weak activity
GI50 (SN12C): 1.49 µM
CC50 (SN12C): 37.7 µM
GI50 (786-0): 5.46 µM
CC50 (786-0): 77.2 µM
GI50 (HT29): 0.68 µM
CC50 (HT29): 34.5 µM
GI50 (SK-MEL-28): 5.75 µM
CC50 (SK-MEL-28): 44.4 µM
GI50 (UO-31): 1.66 µM
CC50 (UO-31; read-out: LC50 (the source's name)): 41 µM
CC50 (COLO 205): 20.4 µM
GI50 (COLO 205): 1.23 µM
GI50 (PC-3): 2 µM
CC50 (PC-3): > 100 µM
GI50 (IGROV1): 1.27 µM
GI50 (A498): 12.7 µM
CC50 (A498): 54.6 µM
GI50 (ACHN): 1.71 µM
CC50 (ACHN): 39 µM
GI50 (HOP-92): 1.87 µM
CC50 (HOP-92): 50.3 µM
CC50 (SK-MEL-5): 14.6 µM
GI50 (SK-MEL-5): 1.1 µM
GI50 (UACC-62): 1.03 µM
CC50 (UACC-62): 41.3 µM
GI50 (MDA-MB-468): 0.593 µM
CC50 (MDA-MB-468): 24.2 µM
GI50 (HCT-116): 0.991 µM
CC50 (HCT-116): > 100 µM
GI50 (HOP-62): 2.01 µM
CC50 (HOP-62): 61.4 µM
GI50 (OVCAR-3): 1.09 µM
CC50 (OVCAR-3): 31.9 µM
GI50 (TK-10): 11.1 µM
CC50 (TK-10): 58 µM
GI50 (RPMI-8226): 1.43 µM
CC50 (RPMI-8226): > 100 µM
GI50 (CAKI-1): 0.776 µM
CC50 (CAKI-1): 44.1 µM
GI50 (SNB-75): 0.88 µM
CC50 (SNB-75): 32 µM
GI50 (OVCAR-5): 1.74 µM
CC50 (OVCAR-5): 38.5 µM

O=C(N/N=C/c1ccc([N+](=O)[O-])[nH]1)c1[nH]c2ccc(Br)cc2c1-c1ccccc1 [Derivative 3p, (E)-5-Bromo-N′-((5-nitro-1H-pyrrol-2-yl)methylene)-3-phenyl-1H-indole-2-carbohydrazide]
GI50 (SF-268): 1.47 µM
CC50 (SF-268): 44.2 µM
GI50 (LOX IMVI): 0.519 µM
CC50 (LOX IMVI): 35.8 µM
GI50 (SK-MEL-2): 2.18 µM
CC50 (SK-MEL-2): 36.5 µM
GI50 (BT-549): 1.52 µM
CC50 (BT-549): 28.4 µM
GI50 (U251): 0.987 µM
CC50 (U251): 39.2 µM
GI50 (CCRF-CEM): 0.382 µM
CC50 (CCRF-CEM): > 100 µM
activity against T47D in two-dose screen [1]: weak activity
GI50 (SN12C): 1.24 µM
CC50 (SN12C): 36.7 µM
GI50 (786-0): 0.803 µM
CC50 (786-0): 41.4 µM
GI50 (HT29): 0.55 µM
CC50 (HT29): 43.9 µM
GI50 (SK-MEL-28): 2.24 µM
CC50 (SK-MEL-28): 43.5 µM
CC50 (COLO 205): 8.08 µM
GI50 (COLO 205): 1.52 µM
GI50 (PC-3): 1.2 µM
CC50 (PC-3): 78.5 µM
GI50 (IGROV1): 1.48 µM
GI50 (A498): 2.6 µM
CC50 (A498): 43.7 µM
GI50 (ACHN): 1.26 µM
CC50 (ACHN): 38 µM
GI50 (HOP-92): 1.79 µM
CC50 (HOP-92): 47.3 µM
CC50 (SK-MEL-5): 8.69 µM
GI50 (SK-MEL-5): 1.02 µM
GI50 (UACC-62): 0.451 µM
CC50 (UACC-62): 40.9 µM
GI50 (MDA-MB-468): 0.873 µM
CC50 (MDA-MB-468): 34.7 µM
GI50 (HCT-116): 0.439 µM
CC50 (HCT-116): 33.8 µM
GI50 (HOP-62): 0.606 µM
CC50 (HOP-62): 39.5 µM
GI50 (OVCAR-3): 0.602 µM
CC50 (OVCAR-3): 34.8 µM
GI50 (TK-10): 12.2 µM
CC50 (TK-10): 53.8 µM
GI50 (RPMI-8226): 0.468 µM
CC50 (RPMI-8226): > 100 µM
GI50 (CAKI-1): 0.411 µM
CC50 (CAKI-1): 34.9 µM
GI50 (SNB-75): 0.482 µM
CC50 (SNB-75): 40.5 µM
GI50 (OVCAR-5): 2.87 µM
CC50 (OVCAR-5): 40.9 µM

O=C(N/N=C/c1cc([N+](=O)[O-])c[nH]1)c1[nH]c2ccc(Br)cc2c1-c1ccccc1 [Derivative 3q, (E)-5-Bromo-N′-((4-nitro-1H-pyrrol-2-yl)methylene)-3-phenyl-1H-indole-2-carbohydrazide]
GI50 (SF-268): 0.774 µM
CC50 (SF-268): > 100 µM
GI50 (LOX IMVI): 0.647 µM
CC50 (LOX IMVI): > 100 µM
GI50 (SK-MEL-2): 1.3 µM
CC50 (SK-MEL-2): > 100 µM
GI50 (BT-549): 2.47 µM
CC50 (BT-549): > 100 µM
GI50 (U251): 0.574 µM
CC50 (U251): 66.8 µM
GI50 (CCRF-CEM): 0.799 µM
CC50 (CCRF-CEM): > 100 µM
activity against T47D in two-dose screen [1]: weak activity
GI50 (SN12C): 2.58 µM
CC50 (SN12C): > 100 µM
GI50 (786-0): 2.21 µM
CC50 (786-0): > 100 µM
GI50 (HT29): 0.469 µM
CC50 (HT29): > 100 µM
GI50 (SK-MEL-28): 0.89 µM
CC50 (SK-MEL-28): > 100 µM
CC50 (COLO 205): > 100 µM
GI50 (COLO 205): 1.28 µM
GI50 (PC-3): 0.724 µM
CC50 (PC-3): > 100 µM
GI50 (IGROV1): 2.06 µM
GI50 (A498): 10.7 µM
CC50 (A498): > 100 µM
GI50 (ACHN): 0.791 µM
CC50 (ACHN): > 100 µM
GI50 (HOP-92): 11.6 µM
CC50 (HOP-92): > 100 µM
CC50 (SK-MEL-5): 69.9 µM
GI50 (SK-MEL-5): 0.671 µM
GI50 (UACC-62): 0.538 µM
CC50 (UACC-62): > 100 µM
GI50 (MDA-MB-468): 0.503 µM
CC50 (MDA-MB-468): > 100 µM
GI50 (HCT-116): 0.491 µM
CC50 (HCT-116): > 100 µM
GI50 (HOP-62): 1.26 µM
CC50 (HOP-62): > 100 µM
GI50 (OVCAR-3): 0.397 µM
CC50 (OVCAR-3): > 100 µM
GI50 (TK-10): 76 µM
CC50 (TK-10): > 100 µM
GI50 (RPMI-8226): 3.71 µM
CC50 (RPMI-8226): > 100 µM
GI50 (CAKI-1): 0.53 µM
CC50 (CAKI-1): > 100 µM
GI50 (SNB-75): 0.242 µM
CC50 (SNB-75): > 100 µM
GI50 (OVCAR-5): 5.37 µM
CC50 (OVCAR-5): > 100 µM
